From the NIST ThermoML archive (doi:10.1016/j.jct.2013.01.010)
Numbers after ± are expanded uncertainties.

Details: 101.33 kPa, Liquid; for speed of sound: Sing-around technique in a fixed-path interferometer; for mass density: Vibrating tube method

Compound | speed of sound (293.15 K) [m/s] | mass density (293.15 K) [kg/m3] | speed of sound (298.15 K) [m/s] | mass density (298.15 K) [kg/m3] | speed of sound (303.15 K) [m/s] | mass density (303.15 K) [kg/m3] | speed of sound (308.15 K) [m/s] | mass density (308.15 K) [kg/m3]
CCn1cc[n+](C)c1.F[B-](F)(F)F [1-ethyl-3-methylimidazolium tetrafluoroborate] | 1631 ± 2.4 | 1283.89 ± 1.5 | 1619.4 ± 2.4 | 1279.91 ± 1.5 | 1607.6 ± 2.4 | 1276.26 ± 1.5 | 1596.3 ± 2.4 | 1272.07 ± 1.4
CC(C)=O [acetone] | 1186 ± 1.2 | 789.987 ± 0.15 | 1163.8 ± 1.2 | 784.405 ± 0.15 | 1141.4 ± 1.2 | 778.871 ± 0.15 | 1119.1 ± 1.2 | 773.066 ± 0.15
C[S+](C)[O-] [dimethyl sulfoxide] | 1503.2 ± 1.2 | 1100.43 ± 0.12 | 1486.3 ± 1.2 | 1095.42 ± 0.12 | 1469.2 ± 1.2 | 1090.41 ± 0.12 | 1452.7 ± 1.2 | 1085.39 ± 0.12
